Data: article PMC7955127, “Preclinical small molecule WEHI-7326 overcomes drug resistance and elicits response in patient-derived xenograft models of human treatment-refractory tumors” (Cell Death & Disease, 2021)

Assay: Acute toxicity study, single intravenous dose (non-GLP)
Type: in vivo, Sprague-Dawley rats
Details: female rats; for Lung - focal red areas medial right lobe (2 mm diameter) (incidence at necropsy) / Lung - haemorrhagic area right caudal lobe (1mm diameter) (incidence at necropsy) / Multifocal red petechiae on all lung lobes (incidence at necropsy) / Pale yellow liver (minimal) (incidence at necropsy) / ALP / ALT / APTT / AST / Albumin / Albumin/Globulin / Bilirubin (Total) / Calcium / Chloride / Cholesterol / Creatinine / Globulin / Glucose / HCT / HGB / MCH / MCHC / MCV / PLT / PT / Phosphate / Potassium / Protein (Total) / RBC / Retc. / Sodium / Triglycerides / Urea / WBC: day 15; for ALP / ALT / APTT / AST / Albumin / Albumin/Globulin / Bilirubin (Total) / Calcium / Chloride / Cholesterol / Creatinine / Globulin / Glucose / HCT / HGB / MCH / MCHC / MCV / PLT / PT / Phosphate / Potassium / Protein (Total) / RBC / Retc. / Sodium / Triglycerides / Urea / WBC: mean ± SD
Description: This acute toxicity study included a satellite group for toxicokinetic assessment. The toxicity study was comprised of 12 male and 12 female rats, which were allocated into four groups of three males and three females. The toxicity of the test substance, WEHI-7326 dihydrochloride (referred to as WEHI-7326 from here), was tested at three dose concentrations of 5 mg/kg, 15 mg/kg and 30 mg/kg administered as a single dose via intravenous tail vein injection. The vehicle control, D-(+)-Glucose, was formulated at 5% w/v and administered per the above regime. On Study Day 15, all animals were terminated with blood collected for biochemistry, haematology and coagulation analysis before undergoing gross necropsy by a US board certified veterinary pathologist. The toxicokinetic satellite group comprised of 30 male rats which were allocated into four groups of three males in the vehicle control group and nine males in each of the three treatment groups. All treatment group animals were then allocated into three subgroups (A, B and C) and bled pre-dose, then 2min, 10min, 0.5h, 2h, 6h, 12h and 24h post-dose. All vehicle control group animals weren’t allocated to a specific subgroup but were bled at 10min and 12h post-dose. All TK animals were then terminated after the final blood collection. Dosing was suspended on Study Day 1 for both the Toxicity and Toxicokinetic Study animals following adverse reactions which lead to the early termination of two animals (one male treated with mid-dose WEHI-7326 from the Toxicity Study and one male treated with high-dose WEHI-7326 from the Toxicokinetic Study) approximately 5-10 minutes post-treatment. After consultation with the Sponsor, the following changes were made to the Study Design:
At the revised high dose of 20mg/kg, all male rats had to be terminated prematurely also due to reaching their body weight loss endpoint of >10% loss. […] Significant findings in clinical pathology outcomes were considered incidental and unrelated to test article treatment. The majority of macroscopic findings at necropsy were also considered to be incidental, however the findings of white streaks through the testes of male animals treated with WEHI-7326 may be related to treatment. Body weights were measured once prior to dose administration, then daily for the duration of the study and at termination. Clinical observations were performed on a daily basis.
The study followed test guideline OECD No. 420 (2001) “Acute Oral Toxicity - Fixed Dose Procedure” with the exception that the route of administration was intravenous (i.v.).

Structure (SMILES): COc1ccc(CNc2nc(NCc3ccc(CN)cc3)nc(NN3CC(=O)NC3=O)n2)cc1 [WEHI-7326]
- Body weight loss >10% (termination required) (incidence) (5 mg/kg single i.v.): 0/3
- Mild fur loss around both eyes from Study Day 10 to 15 (incidence) (5 mg/kg single i.v.): 0/3
- Mild impairment of gait and lack of response to stimuli up to 10 minutes post-dose (incidence) (5 mg/kg single i.v.): 0/3
- No remarkable observations (incidence) (5 mg/kg single i.v.): 3/3
- Lung - focal red areas medial right lobe (2 mm diameter) (incidence at necropsy) (5 mg/kg single i.v.): 0/3
- Lung - haemorrhagic area right caudal lobe (1mm diameter) (incidence at necropsy) (5 mg/kg single i.v.): 0/3
- Multifocal red petechiae on all lung lobes (incidence at necropsy) (5 mg/kg single i.v.): 1/3
- Pale yellow liver (minimal) (incidence at necropsy) (5 mg/kg single i.v.): 1/3
- ALP (5 mg/kg single i.v.): 286 ± 65 U/L
- ALT (5 mg/kg single i.v.): 54 ± 11 U/L
- APTT (5 mg/kg single i.v.): 17.2 ± 1.9 s
- AST (5 mg/kg single i.v.): 93 ± 13 U/L
- Albumin (5 mg/kg single i.v.): 37.3 ± 3.1 g/L
- Albumin/Globulin (5 mg/kg single i.v.): 1.6 ± 0.4 Ratio
- Bilirubin (Total) (5 mg/kg single i.v.): 0.8 ± 0.1 µM
- Calcium (5 mg/kg single i.v.): 2.59 ± 0.07 mM
- Chloride (5 mg/kg single i.v.): 102.4 ± 0.5 mM
- Cholesterol (5 mg/kg single i.v.): 1.98 ± 0.21 mM
- Creatinine (5 mg/kg single i.v.): 30 ± 3 µM
- Globulin (5 mg/kg single i.v.): 23.7 ± 3.4 g/L
- Glucose (5 mg/kg single i.v.): 7.57 ± 0.07 mM
- HCT (5 mg/kg single i.v.): 0.45 ± 0.01 L/L
- HGB (5 mg/kg single i.v.): 137.3 ± 4.9 g/L
- MCH (5 mg/kg single i.v.): 18.87 ± 0.45 pg
- MCHC (5 mg/kg single i.v.): 303.0 ± 4.4 g/L
- MCV (5 mg/kg single i.v.): 62.3 ± 0.9 fL
- PLT (5 mg/kg single i.v.): 1080.0 ± 206.7 10^9/L
- PT (5 mg/kg single i.v.): 21.9 ± 1.0 s
- Phosphate (5 mg/kg single i.v.): 1.75 ± 0.14 mM
- Potassium (5 mg/kg single i.v.): 5.30 ± 0.14 mM
- Protein (Total) (5 mg/kg single i.v.): 61.0 ± 0.4 g/L
- RBC (5 mg/kg single i.v.): 7.27 ± 0.14 10^12/L
- Retc. (5 mg/kg single i.v.): 3.76 ± 0.62%
- Sodium (5 mg/kg single i.v.): 138 ± 1 mM
- Triglycerides (5 mg/kg single i.v.): 0.86 ± 0.29 mM
- Urea (5 mg/kg single i.v.): 6.56 ± 1.18 mM
- WBC (5 mg/kg single i.v.): 11.28 ± 4.18 10^9/L
- Body weight loss >10% (termination required) (incidence) (15 mg/kg single i.v.): 2/3
- Mild fur loss around both eyes from Study Day 10 to 15 (incidence) (15 mg/kg single i.v.): 0/3
- Mild impairment of gait and lack of response to stimuli up to 10 minutes post-dose (incidence) (15 mg/kg single i.v.): 0/3
- No remarkable observations (incidence) (15 mg/kg single i.v.): 1/3
- Lung - focal red areas medial right lobe (2 mm diameter) (incidence at necropsy) (15 mg/kg single i.v.): 0/1
- Lung - haemorrhagic area right caudal lobe (1mm diameter) (incidence at necropsy) (15 mg/kg single i.v.): 0/1
- Multifocal red petechiae on all lung lobes (incidence at necropsy) (15 mg/kg single i.v.): 0/1
- Pale yellow liver (minimal) (incidence at necropsy) (15 mg/kg single i.v.): 0/1
- ALP (15 mg/kg single i.v.): 218 ± 0 U/L
- ALT (15 mg/kg single i.v.): 55 ± 0 U/L
- APTT (15 mg/kg single i.v.): 18.6 ± 0.0 s
- AST (15 mg/kg single i.v.): 73 ± 0 U/L
- Albumin (15 mg/kg single i.v.): 37.7 ± 0 g/L
- Albumin/Globulin (15 mg/kg single i.v.): 1.3 ± 0 Ratio
- Bilirubin (Total) (15 mg/kg single i.v.): 1.0 ± 0 µM
- Calcium (15 mg/kg single i.v.): 2.48 ± 0 mM
- Chloride (15 mg/kg single i.v.): 102.5 ± 0 mM
- Cholesterol (15 mg/kg single i.v.): 1.59 ± 0 mM
- Creatinine (15 mg/kg single i.v.): 27 ± 0 µM
- Globulin (15 mg/kg single i.v.): 28.8 ± 0 g/L
- Glucose (15 mg/kg single i.v.): 7.31 ± 0 mM
- HCT (15 mg/kg single i.v.): 0.45 ± 0.00 L/L
- HGB (15 mg/kg single i.v.): 136.0 ± 0.0 g/L
- MCH (15 mg/kg single i.v.): 18.70 ± 0.00 pg
- MCHC (15 mg/kg single i.v.): 306.0 ± 0.0 g/L
- MCV (15 mg/kg single i.v.): 60.90 ± 0.0 fL
- PLT (15 mg/kg single i.v.): 970.0 ± 0.0 10^9/L
- PT (15 mg/kg single i.v.): 19.9 ± 0.0 s
- Phosphate (15 mg/kg single i.v.): 1.53 ± 0 mM
- Potassium (15 mg/kg single i.v.): 4.53 ± 0 mM
- Protein (Total) (15 mg/kg single i.v.): 66.5 ± 0 g/L
- RBC (15 mg/kg single i.v.): 7.31 ± 0.00 10^12/L
- Retc. (15 mg/kg single i.v.): 4.52 ± 0.00%
- Sodium (15 mg/kg single i.v.): 140 ± 0 mM
- Triglycerides (15 mg/kg single i.v.): 0.76 ± 0 mM
- Urea (15 mg/kg single i.v.): 6.91 ± 0 mM
- WBC (15 mg/kg single i.v.): 10.28 ± 0.00 10^9/L
- Body weight loss >10% (termination required) (incidence) (20 mg/kg single i.v.): 0/3
- Mild fur loss around both eyes from Study Day 10 to 15 (incidence) (20 mg/kg single i.v.): 1/3
- Mild impairment of gait and lack of response to stimuli up to 10 minutes post-dose (incidence) (20 mg/kg single i.v.): 1/3
- No remarkable observations (incidence) (20 mg/kg single i.v.): 2/3
- Lung - focal red areas medial right lobe (2 mm diameter) (incidence at necropsy) (20 mg/kg single i.v.): 1/3
- Lung - haemorrhagic area right caudal lobe (1mm diameter) (incidence at necropsy) (20 mg/kg single i.v.): 1/3
- Multifocal red petechiae on all lung lobes (incidence at necropsy) (20 mg/kg single i.v.): 0/3
- Pale yellow liver (minimal) (incidence at necropsy) (20 mg/kg single i.v.): 0/3
- ALP (20 mg/kg single i.v.): 171 ± 38 U/L
- ALT (20 mg/kg single i.v.): 70 ± 9 U/L
- APTT (20 mg/kg single i.v.): 17.3 ± 1.0 s
- AST (20 mg/kg single i.v.): 93 ± 14 U/L
- Albumin (20 mg/kg single i.v.): 36.5 ± 1.1 g/L
- Albumin/Globulin (20 mg/kg single i.v.): 1.3 ± 0.1 Ratio
- Bilirubin (Total) (20 mg/kg single i.v.): 1.2 ± 0.3 µM
- Calcium (20 mg/kg single i.v.): 2.71 ± 0.12 mM
- Chloride (20 mg/kg single i.v.): 100.5 ± 0.7 mM
- Cholesterol (20 mg/kg single i.v.): 2.16 ± 0.31 mM
- Creatinine (20 mg/kg single i.v.): 38 ± 5 µM
- Globulin (20 mg/kg single i.v.): 27.9 ± 1.2 g/L
- Glucose (20 mg/kg single i.v.): 7.29 ± 0.68 mM
- HCT (20 mg/kg single i.v.): 0.46 ± 0.01 L/L
- HGB (20 mg/kg single i.v.): 134.3 ± 3.2 g/L
- MCH (20 mg/kg single i.v.): 18.53 ± 0.84 pg
- MCHC (20 mg/kg single i.v.): 290.7 ± 1.5 g/L
- MCV (20 mg/kg single i.v.): 63.7 ± 2.5 fL
- PLT (20 mg/kg single i.v.): 957.0 ± 63.5 10^9/L
